The subject of series [1] is state 3 respiration of renal cortical mitochondria. Kind of series: Ca2+-induced attenuation of state 3 respiration in isolated mitochondria. Set-up: species or system rabbit. The note with it: 10 μM pretreatment, then Ca2+ 1 μM for 5 min.
For series [2], the system named is NDUFV2 cleavage. Kind of series: Ca2+-induced cleavage of complex I subunit NDUFV2 in isolated mitochondria. More on the design: species or system rabbit. The note with it: 10 μM pretreatment, then Ca2+ 1 μM for 5 min.
Series [3] deals with T1, purified calpain 1 (Homo sapiens, UniProt P07384).
T1 sequence (P07384 1-714): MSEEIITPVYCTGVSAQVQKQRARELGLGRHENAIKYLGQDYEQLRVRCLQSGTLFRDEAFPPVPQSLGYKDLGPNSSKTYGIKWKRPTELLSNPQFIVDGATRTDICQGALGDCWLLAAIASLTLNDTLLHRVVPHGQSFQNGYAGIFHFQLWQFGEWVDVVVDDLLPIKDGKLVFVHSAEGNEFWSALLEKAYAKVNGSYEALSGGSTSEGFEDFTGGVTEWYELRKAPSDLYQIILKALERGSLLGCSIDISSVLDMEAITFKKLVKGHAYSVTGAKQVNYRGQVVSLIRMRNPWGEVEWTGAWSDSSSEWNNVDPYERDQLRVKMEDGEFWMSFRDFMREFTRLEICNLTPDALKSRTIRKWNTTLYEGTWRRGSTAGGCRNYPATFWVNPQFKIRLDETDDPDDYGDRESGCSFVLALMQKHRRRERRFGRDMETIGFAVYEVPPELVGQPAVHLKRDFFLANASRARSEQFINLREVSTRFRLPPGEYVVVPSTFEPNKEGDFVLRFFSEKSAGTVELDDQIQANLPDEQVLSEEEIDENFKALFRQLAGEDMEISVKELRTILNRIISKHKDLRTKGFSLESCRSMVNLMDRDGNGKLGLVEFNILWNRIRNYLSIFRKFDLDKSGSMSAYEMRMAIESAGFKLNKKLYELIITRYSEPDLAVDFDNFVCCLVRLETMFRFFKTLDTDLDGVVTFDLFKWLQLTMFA
T1 sequence (P04632 1-268 partner): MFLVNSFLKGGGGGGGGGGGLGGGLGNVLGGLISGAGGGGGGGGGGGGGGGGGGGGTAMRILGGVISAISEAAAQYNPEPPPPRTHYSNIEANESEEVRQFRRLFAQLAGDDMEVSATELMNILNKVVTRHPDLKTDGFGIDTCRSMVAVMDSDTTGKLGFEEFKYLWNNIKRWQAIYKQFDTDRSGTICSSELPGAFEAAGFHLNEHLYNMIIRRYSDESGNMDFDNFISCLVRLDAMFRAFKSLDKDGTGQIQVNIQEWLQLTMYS
Kind of series: Calpain 1 activity, sLLVY-AMC hydrolysis with purified calpain 1. Type of series: biochemical.

The target of series [4] is T2, calpain 2 (Sus scrofa, UniProt A6YNL5).
T2 sequence (A6YNL5 1-700): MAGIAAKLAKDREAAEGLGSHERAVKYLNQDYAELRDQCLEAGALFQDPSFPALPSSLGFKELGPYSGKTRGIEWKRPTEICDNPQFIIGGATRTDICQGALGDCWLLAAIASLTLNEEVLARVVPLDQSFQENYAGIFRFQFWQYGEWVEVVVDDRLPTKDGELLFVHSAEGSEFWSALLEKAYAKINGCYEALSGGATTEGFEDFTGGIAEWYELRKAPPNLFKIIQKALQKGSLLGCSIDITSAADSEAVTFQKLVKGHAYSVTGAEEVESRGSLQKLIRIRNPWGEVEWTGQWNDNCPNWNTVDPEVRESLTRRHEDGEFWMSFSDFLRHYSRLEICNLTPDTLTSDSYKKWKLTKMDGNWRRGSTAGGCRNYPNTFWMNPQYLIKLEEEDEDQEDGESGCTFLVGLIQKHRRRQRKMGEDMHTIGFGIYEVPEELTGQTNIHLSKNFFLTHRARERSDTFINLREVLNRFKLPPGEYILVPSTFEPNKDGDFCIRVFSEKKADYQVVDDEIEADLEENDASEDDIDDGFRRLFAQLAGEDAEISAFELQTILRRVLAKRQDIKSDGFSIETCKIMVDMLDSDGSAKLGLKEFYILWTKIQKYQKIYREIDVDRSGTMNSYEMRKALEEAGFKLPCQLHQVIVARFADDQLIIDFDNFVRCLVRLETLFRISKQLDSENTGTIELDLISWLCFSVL
T2 sequence (P04574 1-266 partner): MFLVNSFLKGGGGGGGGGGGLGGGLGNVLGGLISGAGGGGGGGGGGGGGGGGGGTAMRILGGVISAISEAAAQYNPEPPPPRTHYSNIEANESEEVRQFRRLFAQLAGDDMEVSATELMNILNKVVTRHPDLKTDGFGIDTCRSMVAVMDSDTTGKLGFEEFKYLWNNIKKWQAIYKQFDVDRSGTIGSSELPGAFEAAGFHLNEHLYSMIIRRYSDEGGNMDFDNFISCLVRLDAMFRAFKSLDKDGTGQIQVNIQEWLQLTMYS
Kind of series: Calpain 2 inhibition. The format is biochemical, porcine.

The test system of series [5] is calpain. The conditions noted are these: cited from earlier work.
The conditions of series [6]: no reference given; cited from earlier work.

By IC50 is commonly meant the concentration needed to halve the response being measured.

Consider `CCCC[C@@H](C=O)NC(=O)[C@H](CC(C)C)NC(=O)OCc1ccccc1` [Calpeptin, Z-Leu-Nle-CHO], for which the “Ca2+-induced attenuation of state 3 respiration” value in series [1] is recorded as “blocked”. The “Ca2+-induced cleavage of complex I subunit NDUFV2” value in series [2] was “blocked”. In addition, the IC50 in series [3] was ~40 nM; in series [4], ~60 nM.

Take `O=C(O)/C(S)=C/c1ccc(I)cc1` [PD150606]: the “selectivity for calpain over cathepsin B” value in series [5] is given as 600 fold.

As to `O=C(O)/C(S)=C/c1c[nH]c2ccc(F)cc12` [PD151746], the “selectivity for calpain over cathepsin B” value in series [5] was 600 fold.

Take `CCS` [ethanethiol]: the “thiol pKa” value in series [6] is given as 10.61.

As for `COc1ccc(S)cc1` [methoxythiophenol], the “thiol pKa” value in series [6] is on record as 6.8.

(Values after PMC2801808 (Journal of medicinal chemistry, 2009).)
